From patent publication US8940909B2, “Indicator platform” (Biosynth AG, priority 2009, dated 2015)

Legend:
[1] = Reaction of MDAB with active signalogens (aldol donor properties); settings: for Aldol product / color formed with MDAB: presence of MDAB, absence of oxygen
[2] = test system: enteric bacterial cells; test: MDAB staining of bacterial colonies with indicators I4a and I5a on Tryptic Soy Agar, aerobic and anaerobic; assay type: cell-based; settings: for colonial morphology, aerobic conditions / colonial morphology, microaerobic (anaerobic) conditions: Salmonella manhattan (b-gal −), TSAYE with 40 mg/100 ml of indicator
Experimental: Tryptic Soy Agar (TSA) with yeast extract (0.6%) was used as the base plating medium. The media were autoclaved at 121° C. for 15 minutes and placed in a 50° C. water bath to cool. Indicators were added to the basal medium at a final concentration of 40 mg/100 ml (from 80 mg/ml stock solutions in DMF). Over night cultures of enteric bacterial cells in Brain Heart Infusion Broth were streaked onto the plates and incubated at 35° C. for 24 hours under aerobic and anaerobic conditions. After incubation, the colonial morphologies on the plates were recorded (Table III).
Weak staining was observed occasionally due to residual oxygen (micro-anaerobic conditions). Under aerobic conditions indigo (IN-stains) generally dominated the effects of MDAB staining. For example indicator system I4a/MDAB stained colonies violet under anaerobic but indigo blue under aerobic conditions.

[3] = test system: Escherichia coli; test: IN and IO staining of bacterial colonies under anaerobic conditions; assay type: cell-based; settings: Nutrient Agar plates, anaerobically incubated with E. coli
Experimental: Nutrient Agar plates containing 150 mg/l of various substrates and 100 mg/l IPTG were inoculated with Escherichia coli. Plates were put in an anaerobic jar (Anaerojar, Oxoid), an AnaeroGen sachet (Oxoid) was added, the jar was closed and incubated for 24 hours at 37° C.
IN staining cannot be used under anaerobic conditions.

[4] = test system: Aeromonas hydrophila 292; test: IO staining of colonies of beta-D-galactosidase positive/negative bacteria (Table IVb); assay type: cell-based; settings: Aeromonas hydrophila strain 292, b-gal +; 24 h on Nutrient Agar, 150 mg/l indicator, 100 mg/l IPTG; for G: Growth of colonies: key: −: absent; +/−: weak; +: strong; ++: very strong
[5] = test system: Citrobacter freundii 181; test: as above; assay type: cell-based; settings: Citrobacter freundii strain 181, b-gal +; 24 h on Nutrient Agar, 150 mg/l indicator, 100 mg/l IPTG; for C: Color of colonies: key: −: absent; +/−: weak; +: strong; ++: very strong; for G: Growth of colonies: key: −: absent; +/−: weak; +: strong; ++: very strong
[6] = test system: Enterobacter aerogenes 242; test: as above; assay type: cell-based; settings: Enterobacter aerogenes strain 242, b-gal +; 24 h on Nutrient Agar, 150 mg/l indicator, 100 mg/l IPTG; for C: Color of colonies: key: −: absent; +/−: weak; +: strong; ++: very strong; for G: Growth of colonies: key: −: absent; +/−: weak; +: strong; ++: very strong
[7] = test system: Enterobacter cloacae 245; test: as above; assay type: cell-based; settings: Enterobacter cloacae strain 245, b-gal +; 24 h on Nutrient Agar, 150 mg/l indicator, 100 mg/l IPTG; for C: Color of colonies: key: −: absent; +/−: weak; +: strong; ++: very strong; for G: Growth of colonies: key: −: absent; +/−: weak; +: strong; ++: very strong
[8] = test system: Escherichia coli (O157:H7) 60; test: as above; assay type: cell-based; settings: Escherichia coli (O157:H7) strain 60, b-gal +; 24 h on Nutrient Agar, 150 mg/l indicator, 100 mg/l IPTG
[9] = test system: Escherichia coli 61; test: as above; assay type: cell-based; settings: Escherichia coli strain 61, b-gal +; 24 h on Nutrient Agar, 150 mg/l indicator, 100 mg/l IPTG; for C: Color of colonies: key: −: absent; +/−: weak; +: strong; ++: very strong; for G: Growth of colonies: key: −: absent; +/−: weak; +: strong; ++: very strong
[10] = test system: Escherichia coli 270; test: as above; assay type: cell-based; settings: Escherichia coli strain 270, b-gal +; 24 h on Nutrient Agar, 150 mg/l indicator, 100 mg/l IPTG; for C: Color of colonies: key: −: absent; +/−: weak; +: strong; ++: very strong; for G: Growth of colonies: key: −: absent; +/−: weak; +: strong; ++: very strong
[11] = test system: Klebsiella pneumoniae 164; test: as above; assay type: cell-based; settings: Klebsiella pneumoniae strain 164, b-gal +; 24 h on Nutrient Agar, 150 mg/l indicator, 100 mg/l IPTG; for C: Color of colonies: key: −: absent; +/−: weak; +: strong; ++: very strong; for G: Growth of colonies: key: −: absent; +/−: weak; +: strong; ++: very strong
[12] = test system: Serratia marcescens 40; test: as above; assay type: cell-based; settings: Serratia marcescens strain 40, b-gal +; 24 h on Nutrient Agar, 150 mg/l indicator, 100 mg/l IPTG; for G: Growth of colonies: key: −: absent; +/−: weak; +: strong; ++: very strong
[13] = test system: Staphylococcus intermedius 31; test: as above; assay type: cell-based; settings: Staphylococcus intermedius strain 31, b-gal +; 24 h on Nutrient Agar, 150 mg/l indicator, 100 mg/l IPTG
[14] = test system: Staphylococcus saprophyticus 273; test: as above; assay type: cell-based; settings: Staphylococcus saprophyticus strain 273, b-gal +; 24 h on Nutrient Agar, 150 mg/l indicator, 100 mg/l IPTG; for G: Growth of colonies: key: −: absent; +/−: weak; +: strong; ++: very strong
[15] = test system: Salmonella bongori 81; test: as above; assay type: cell-based; settings: Salmonella bongori strain 81, b-gal +; 24 h on Nutrient Agar, 150 mg/l indicator, 100 mg/l IPTG; for C: Color of colonies: key: −: absent; +/−: weak/variable; +: strong; for G: Growth of colonies: key: −: absent; +/−: weak; +: strong; ++: very strong
[16] = test system: Salmonella illa 73; test: as above; assay type: cell-based; settings: Salmonella illa strain 73, b-gal +; 24 h on Nutrient Agar, 150 mg/l indicator, 100 mg/l IPTG; note: key: −: absent; +/−: weak; +: strong; ++: very strong
[17] = test system: Shigella dysenteriae Serovar 1 131; test: as above; assay type: cell-based; settings: Shigella dysenteriae Serovar 1 strain 131, b-gal +/−; 24 h on Nutrient Agar, 150 mg/l indicator, 100 mg/l IPTG
[18] = test system: Shigella sonnei 133; test: as above; assay type: cell-based; settings: Shigella sonnei strain 133, b-gal +/−; 24 h on Nutrient Agar, 150 mg/l indicator, 100 mg/l IPTG; for C: Color of colonies: key: −: absent; +/−: weak; +: strong; ++: very strong; for G: Growth of colonies: key: −: absent; +/−: weak; +: strong; ++: very strong
[19] = test system: Yersinia enterocolitica 175; test: as above; assay type: cell-based; settings: Yersinia enterocolitica strain 175, b-gal +/−; 24 h on Nutrient Agar, 150 mg/l indicator, 100 mg/l IPTG; for G: Growth of colonies: key: −: absent; +/−: weak; +: strong; ++: very strong
[20] = test system: Salmonella enteritidis 43; test: as above; assay type: cell-based; settings: Salmonella enteritidis strain 43, b-gal −; 24 h on Nutrient Agar, 150 mg/l indicator, 100 mg/l IPTG; note: key: −: absent; +/−: weak; +: strong; ++: very strong
[21] = test system: Bacillus subtilis 65; test: as above; assay type: cell-based; settings: Bacillus subtilis strain 65, b-gal −; 24 h on Nutrient Agar, 150 mg/l indicator, 100 mg/l IPTG; for C: Color of colonies: key: −: absent; +/−: weak; +: strong; ++: very strong; for F: Fluorescence of colonies: key: −: absent; +/−: weak; +: strong; ++: very strong
[22] = test system: Listeria monocytogenes (4b) 290; test: as above; assay type: cell-based; settings: Listeria monocytogenes (4b) strain 290, b-gal −; 24 h on Nutrient Agar, 150 mg/l indicator, 100 mg/l IPTG; for C: Color of colonies: key: −: absent; +/−: weak; +: strong; ++: very strong; for F: Fluorescence of colonies: key: −: absent; +/−: weak; +: strong; ++: very strong
[23] = test system: Pseudomonas aeruginosa 168; test: as above; assay type: cell-based; settings: Pseudomonas aeruginosa strain 168, b-gal −, 24 h on Nutrient Agar, 150 mg/l indicator, 100 mg/l IPTG; for C: Color of colonies: key: −: absent; +/−: weak; +: strong; ++: very strong; for G: Growth of colonies: key: −: absent; +/−: weak; +: strong; ++: very strong
[24] = test system: Shigella boydii 135; test: as above; assay type: cell-based; settings: Shigella boydii strain 135, b-gal −; 24 h on Nutrient Agar, 150 mg/l indicator, 100 mg/l IPTG; note: key: −: absent; +/−: weak; +: strong; ++: very strong
[25] = test system: Staphylococcus aureus 2; test: as above; assay type: cell-based; settings: Staphylococcus aureus strain 2, b-gal −, 24 h on Nutrient Agar, 150 mg/l indicator, 100 mg/l IPTG; for F: Fluorescence of colonies: key: −: absent; +/−: weak; +: strong; ++: very strong
[26] = test system: Streptococcus agalactiae 195; test: as above; assay type: cell-based; settings: Streptococcus agalactiae strain 195, b-gal −; 24 h on Nutrient Agar, 150 mg/l indicator, 100 mg/l IPTG; for C: Color of colonies: key: −: absent; +/−: weak; +: strong; ++: very strong; for F: Fluorescence of colonies: key: −: absent; +/−: weak; +: strong; ++: very strong

Sc1c[nH]c2ccccc12 [aS7, 1H-Indol-3-thiol]
Aldol product / color formed with MDAB [1]: the expected violet color appeared only under strongly acidic conditions | Aldol product / color formed with MDAB ([1]; listed as 3-mercaptoindole): did produce the characteristic pink dye (BI7) under strongly acidic conditions

CN(C)c1ccc(C=O)cc1 [DAB, 4-(N,N-Dimethyl)aminobenzaldehyde]
Formation of BI-stains when used to replace MDAB ([2]; all conditions tested): did not produce any BI-stains

COc1cc(N(C)C)ccc1C=O [MDAB, 2-methoxy-4-(N,N-dimethylamino)benzaldehyde]
Toxic effect on microbial cell growth ([2]; Indox/MDAB staining of microbial colonies): no toxic effect

Oc1c[nH]c2cc(Cl)c(Br)cc12 [aS5, 5-Bromo-6-chloro-1H-indol-3-ol]
Efficiency as aldol donor with MDAB ([1]; compared with 6-chloro-1H-indol-3-ol (aS3)): far more effective

5-Bromo-6-chloro-1H-indol-3-yl-beta-D-galactopyranoside [Indicator I5a]
colonial morphology, aerobic conditions ([2]; aR MDAB, equivalents 1:1): Cream colored colonies | colonial morphology, microaerobic (anaerobic) conditions ([2]; aR MDAB, equivalents 1:1): Cream colored colonies | colonial morphology, aerobic conditions ([2]; no aR): Cream colored colonies | colonial morphology, microaerobic (anaerobic) conditions ([2]; no aR): Cream colored colonies

COc1ccc(C(=O)c2ccccc2-n2cc(O[C@@H]3O[C@H](CO)[C@H](O)[C@H](O)[C@H]3O)c3ccc(Cl)cc32)c(OC)c1 [Indicator I27a, 6-Chloro-1-[2-(2,4-dimethoxybenzoyl)phenyl]-1H-indol-3-yl-beta-D-galactopyranoside]
C: Color of colonies [3]: y-o | D: Diffusion around colonies [3]: +/− | G: Growth of colonies [3]: + | I: Intensity of color [3]: + | L: Localization on colonies [3]: + | S: Size of colonies [3]: 1 mm | C: Color of colonies [4]: + | F: Fluorescence of colonies [4]: + | G: Growth of colonies [4]: + | C: Color of colonies [5]: + | F: Fluorescence of colonies [5]: + | G: Growth of colonies [5]: + | C: Color of colonies [6]: + | F: Fluorescence of colonies [6]: + | G: Growth of colonies [6]: + | C: Color of colonies [7]: ++ | F: Fluorescence of colonies [7]: ++ | G: Growth of colonies [7]: + | C: Color of colonies [8]: ++ | F: Fluorescence of colonies [8]: ++ | G: Growth of colonies [8]: + | C: Color of colonies [9]: ++ | F: Fluorescence of colonies [9]: ++ | G: Growth of colonies [9]: + | C: Color of colonies [10]: ++ | F: Fluorescence of colonies [10]: ++ | G: Growth of colonies [10]: + | C: Color of colonies [11]: + | F: Fluorescence of colonies [11]: + | G: Growth of colonies [11]: + | C: Color of colonies [12]: + | F: Fluorescence of colonies [12]: + | G: Growth of colonies [12]: + | C: Color of colonies [13]: − | F: Fluorescence of colonies [13]: − | G: Growth of colonies [13]: +/− | C: Color of colonies [14]: +/− | F: Fluorescence of colonies [14]: +/− | G: Growth of colonies [14]: + | C: Color of colonies [15]: +/− | F: Fluorescence of colonies [15]: +/− | G: Growth of colonies [15]: + | C: Color of colonies [16]: − | F: Fluorescence of colonies [16]: − | G: Growth of colonies [16]: + | C: Color of colonies [17]: − | F: Fluorescence of colonies [17]: − | G: Growth of colonies [17]: + | C: Color of colonies [18]: + | F: Fluorescence of colonies [18]: ++ | G: Growth of colonies [18]: + | C: Color of colonies [19]: +/− | F: Fluorescence of colonies [19]: − | G: Growth of colonies [19]: + | C: Color of colonies [20]: − | F: Fluorescence of colonies [20]: − | G: Growth of colonies [20]: + | C: Color of colonies [21]: − | F: Fluorescence of colonies [21]: − | G: Growth of colonies [21]: + | C: Color of colonies [22]: − | F: Fluorescence of colonies [22]: − | G: Growth of colonies [22]: +/− | C: Color of colonies [23]: − | G: Growth of colonies [23]: + | F: Fluorescence of colonies ([23]; footnote 1: blue autofluorescence): +^1 | C: Color of colonies [24]: − | F: Fluorescence of colonies [24]: − | G: Growth of colonies [24]: + | F: Fluorescence of colonies [25]: − | G: Growth of colonies [25]: +/− | C: Color of colonies ([25]; footnote 2: S. aureus natural color): − | C: Color of colonies [26]: − | F: Fluorescence of colonies [26]: − | G: Growth of colonies [26]: +/−
